Data: article PMC4403042, “Atrial-like cardiomyocytes from human pluripotent stem cells are a robust preclinical model for assessing atrial-selective pharmacology” (EMBO Molecular Medicine, 2015)

Legend:
Format in all cases: cell-based, human
[1] = test system: embryoid bodies (EBs); experiment: Beating frequency of embryoid bodies from CT or RA differentiations; settings: RA-treated EBs, N=16, 37 degrees; control 45/min
Text: EMBO Molecular Medicine Peer Review Process File - EMM-2014-04757
Please, discuss this finding.
The reviewer raises an important point and we have now discussed this finding on page-17 of the
the atrial-selective ion channel gene, KCNA5. These experiments also established that KCNJ3 and
KCNJ5 are regulated by COUP-TFII.
KCNJ3 and KCNJ5 in atrial CMs. Future studies aimed at dissecting the roles of COUP-TFI and
COUP-TFII during atrial differentiation are required to understand whether these genes act in
It also remains to be tested if
loss of COUP-TFI can be rescued by COUP-TFII and vice versa. However, since myocardial
ablation of COUP-TFII in the mouse results in a severe phenotype (25), it seems unlikely that
COUP-TFI can account for loss of COUP-TFII. Nonetheless, it is likely that deletion of both COUP-
TFI and COUP-TFII might result in a more severe phenotype”.
On page 5 a Fig S1G is introduced; this should be Fig S1F
This was an error, which has now been corrected.
Fig S2 is not introduced in the main text.
We apologize for the missing text describing Fig. S2. This is now included on page 6 of the revised
Fig 5 panel G label must be corrected. […]
a platform maintained at 37 degrees. We determined the beating frequency of N=16 EBs each. […]
rates recorded were 45/min in control EBs and 60/min in RA-treated EBs (Error bars represent […]

[2] = test system: COUP-TFI (NR2F1); experiment: qPCR of COUP-TFI after RA treatment; settings: day 31 GFP+ CMs, RA-treated vs control differentiation
Protocol: (§1) In order to determine the dynamics of COUP-TF expression following RA treatment, expression levels of both COUP-TFI and II were analyzed by qPCR at different time points and compared to control EBs. COUP-TFs were induced within 24 h of treatment with RA followed by dramatic increase in expression thereafter. […] The expression of COUP-TFs was maintained in differentiated CMs at day 31. COUP-TFI was expressed 20-fold higher, and COUP-TFII was enriched over 30-fold in hESC-atrial CMs compared to hESC-ventricular CMs (Fig4A and B). Antibodies selectively binding to COUP-TFI or COUP-TFII were used to verify the expression of these proteins. […]
(§2) atRA (Sigma) was diluted in DMSO to make a solution of 50 mmol/L which was further diluted in distilled water to have a stock solution of 0.0001 mol/L. atRA was used in a final concentration of 1 µmol/L in BPEL medium to direct atrial […]
(§3) Gene expression was determined on the HumanHT-12 v4 Expression BeadChip at ServiceXS, Leiden, The Netherlands. […]
(§4) For assessing gene expression by qPCR, cDNA was synthesized from approximately 1µ g of RNA obtained from three independent differentiations (iScript cDNA Synthesis Kit, BIO-RAD). Target identification was performed using SYBR Green (Applied Biosystems, Life technologies) and detected by CFX96 Real-Time PCR system (Bio-Rad). […]

[3] = test system: COUP-TFII (NR2F2); experiment: qPCR of COUP-TFII after RA treatment; settings: day 31 GFP+ CMs, RA-treated vs control differentiation
Protocol: as §1, §2, §3, §4

SMILES: CC1=C(/C=C/C(C)=C/C=C/C(C)=C/C(=O)O)C(C)(C)CCC1 [RA, all-trans retinoic acid]
- beating frequency of EBs [1]: 60 min⁻¹
- COUP-TFI mRNA, hESC-atrial vs hESC-ventricular CMs [2]: 20 fold
- COUP-TFII mRNA, hESC-atrial vs hESC-ventricular CMs [3]: over 30 fold
